Bounds are passed on as bounds.

recombinant human Nav1.7, sequence (Q15858 whole entry): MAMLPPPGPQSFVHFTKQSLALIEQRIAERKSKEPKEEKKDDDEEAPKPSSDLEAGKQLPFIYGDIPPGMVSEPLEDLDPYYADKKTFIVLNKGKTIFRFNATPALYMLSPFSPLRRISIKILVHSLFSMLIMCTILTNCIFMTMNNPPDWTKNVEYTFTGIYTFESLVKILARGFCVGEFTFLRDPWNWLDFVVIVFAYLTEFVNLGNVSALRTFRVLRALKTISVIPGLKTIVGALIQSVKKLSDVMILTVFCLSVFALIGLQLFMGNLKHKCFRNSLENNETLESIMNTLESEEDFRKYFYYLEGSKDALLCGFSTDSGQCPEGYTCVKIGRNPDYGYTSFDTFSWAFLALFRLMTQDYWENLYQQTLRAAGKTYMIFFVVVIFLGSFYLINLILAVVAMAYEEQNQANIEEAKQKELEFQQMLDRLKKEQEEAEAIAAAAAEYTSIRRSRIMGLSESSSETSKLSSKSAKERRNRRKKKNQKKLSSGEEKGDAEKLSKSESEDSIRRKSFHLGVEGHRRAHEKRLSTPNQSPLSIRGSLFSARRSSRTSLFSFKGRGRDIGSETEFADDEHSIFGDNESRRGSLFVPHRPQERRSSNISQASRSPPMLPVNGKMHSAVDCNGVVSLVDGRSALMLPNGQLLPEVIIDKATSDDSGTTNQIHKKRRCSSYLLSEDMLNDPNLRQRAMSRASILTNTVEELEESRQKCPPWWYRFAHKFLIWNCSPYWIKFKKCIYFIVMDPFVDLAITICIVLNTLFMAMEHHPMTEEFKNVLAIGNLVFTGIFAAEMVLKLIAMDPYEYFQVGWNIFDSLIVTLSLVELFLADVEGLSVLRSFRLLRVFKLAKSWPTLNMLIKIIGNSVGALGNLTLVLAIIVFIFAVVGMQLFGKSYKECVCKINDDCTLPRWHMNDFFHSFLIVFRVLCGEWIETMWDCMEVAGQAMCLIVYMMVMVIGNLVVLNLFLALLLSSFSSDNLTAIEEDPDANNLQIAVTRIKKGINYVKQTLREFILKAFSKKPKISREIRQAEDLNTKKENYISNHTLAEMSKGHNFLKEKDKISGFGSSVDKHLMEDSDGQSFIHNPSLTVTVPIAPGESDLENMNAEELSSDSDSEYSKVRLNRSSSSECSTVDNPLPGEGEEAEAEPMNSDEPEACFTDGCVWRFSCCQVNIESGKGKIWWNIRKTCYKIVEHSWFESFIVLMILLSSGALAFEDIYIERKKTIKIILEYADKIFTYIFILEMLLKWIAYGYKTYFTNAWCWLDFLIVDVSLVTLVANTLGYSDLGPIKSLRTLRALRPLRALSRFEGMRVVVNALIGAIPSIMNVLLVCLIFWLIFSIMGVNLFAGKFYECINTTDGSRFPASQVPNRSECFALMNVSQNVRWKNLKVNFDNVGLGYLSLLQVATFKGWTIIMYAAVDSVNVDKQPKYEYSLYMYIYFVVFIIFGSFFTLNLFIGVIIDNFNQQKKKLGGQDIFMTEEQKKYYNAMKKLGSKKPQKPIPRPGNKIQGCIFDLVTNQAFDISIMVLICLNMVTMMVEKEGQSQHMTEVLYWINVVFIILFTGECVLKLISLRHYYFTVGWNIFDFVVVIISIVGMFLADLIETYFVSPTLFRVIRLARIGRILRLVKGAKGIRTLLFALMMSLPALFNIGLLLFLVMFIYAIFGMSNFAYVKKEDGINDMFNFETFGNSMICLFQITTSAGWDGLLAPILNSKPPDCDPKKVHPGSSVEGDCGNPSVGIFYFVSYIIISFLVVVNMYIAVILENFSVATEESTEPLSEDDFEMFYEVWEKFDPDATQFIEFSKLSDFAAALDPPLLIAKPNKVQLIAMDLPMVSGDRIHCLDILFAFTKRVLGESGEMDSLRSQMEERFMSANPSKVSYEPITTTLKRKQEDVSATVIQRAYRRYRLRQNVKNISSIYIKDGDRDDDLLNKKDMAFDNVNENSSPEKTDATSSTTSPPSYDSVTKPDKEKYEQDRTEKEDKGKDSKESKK

For one assay, the target named is recombinant human Nav1.7 (Homo sapiens (Human), UniProt Q15858). As to the kind of experiment: FRET-based membrane potential assay, recombinant human sodium channel Nav1.7. Type of assay: cell-based. As to conditions: HEK293 cells stably expressing recombinant human Nav1.7; veratridine + scorpion venom depolarization; read-out: FRET-Membrane Potential Nav1.7 IC50. Summed up:
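Channel activation used veratridine at its EC80, set by a dilution curve each experiment, together with Leiurus scorpion venom, added 3 min after compound. Membrane-potential ratio signals from FLIPR Tetra in HEPES-buffered HBSS were fitted to a four-parameter Hill equation for percent inhibition and IC50.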
For `COCCNC(=O)CN(C)C(=O)c1ccc2cc(Oc3ccc(C(F)(F)F)cn3)ccc2n1` [Example 442, N-{2-[(2-methoxyethyl)amino]-2-oxoethyl}-N-methyl-6-{[5-(trifluoromethyl)pyridin-2-yl]oxy}quinoline-2-carboxamide], the concentration for half-maximal inhibition (IC50) (usually the midpoint of a concentration-inhibition curve) stood at 5520 nM.

As for `O=C(NCC(=O)N1CCOCC1)c1ccc2cc(Oc3ccc(C(F)(F)F)cn3)ccc2n1` [Example 443, N-[2-(morpholin-4-yl)-2-oxoethyl]-6-{[5-(trifluoromethyl)pyridin-2-yl]oxy}quinoline-2-carboxamide], the IC50 came to 703 nM.

Take `O=C(NCCC(=O)N1CCOCC1)c1ccc2cc(Oc3ccc(C(F)(F)F)cn3)ccc2n1` [Example 444, N-[3-(morpholin-4-yl)-3-oxopropyl]-6-{[5-(trifluoromethyl)pyridin-2-yl]oxy}quinoline-2-carboxamide]: the IC50 worked out at 1400 nM.

Take `O=C(NCCC(=O)N1CCCC1)c1ccc2cc(Oc3ccc(C(F)(F)F)cn3)ccc2n1` [Example 445, N-[3-oxo-3-(pyrrolidin-1-yl)propyl]-6-{[5-(trifluoromethyl)pyridin-2-yl]oxy}quinoline-2-carboxamide]: the half-maximal inhibitory concentration (IC50) is 268 nM.

For `O=C(NCC(=O)N1CCCCC1)c1ccc2cc(Oc3ccc(C(F)(F)F)cn3)ccc2n1` [Example 447, N-[2-oxo-2-(piperidin-1-yl)ethyl]-6-{[5-(trifluoromethyl)pyridin-2-yl]oxy}quinoline-2-carboxamide], the concentration for half-maximal inhibition (IC50) came to 690 nM.

Regarding `CN1CC(NC(=O)c2ccc3cc(Oc4ccc(C(F)(F)F)cn4)ccc3n2)CC1=O` (stereo not shown) [Example 448, N-(1-methyl-5-oxopyrrolidin-3-yl)-6-{[5-(trifluoromethyl)pyridin-2-yl]oxy}quinoline-2-carboxamide], the half-inhibitory concentration (IC50) was determined as 371 nM.

On to `CN1CCN(C(=O)c2ccc3cc(Oc4ccc(C(F)(F)F)cn4)ccc3n2)CC1=O` [Example 450, 1-methyl-4-[(6-{[5-(trifluoromethyl)pyridin-2-yl]oxy}quinolin-2-yl)carbonyl]piperazin-2-one], for which the IC50 was determined as 3580 nM.

Take `CN(C)C(=O)[C@@H]1CCCN1C(=O)c1ccc2cc(Oc3ccc(C(F)(F)F)cn3)ccc2n1` [Example 451, N,N-dimethyl-1-[(6-{[5-(trifluoromethyl)pyridin-2-yl]oxy}quinolin-2-yl)carbonyl]-L-prolinamide]: the IC50 was found to be 5230 nM.

For the compound `CN(CC(=O)NC1CC1)C(=O)c1ccc2cc(Oc3ccc(C(F)(F)F)cn3)ccc2n1` [Example 452, N-[2-(cyclopropylamino)-2-oxoethyl]-N-methyl-6-{[5-(trifluoromethyl)pyridin-2-yl]oxy}quinoline-2-carboxamide], the IC50 was determined as 3210 nM.

For the compound `CCN(CC)C(=O)CCNC(=O)c1ccc2cc(Oc3ccc(C(F)(F)F)cn3)ccc2n1` [Example 453, N-[3-(diethylamino)-3-oxopropyl]-6-{[5-(trifluoromethyl)pyridin-2-yl]oxy}quinoline-2-carboxamide], the concentration for half-maximal inhibition (IC50) worked out at 405 nM.

With `CC(C)NC(=O)CN(C)C(=O)c1ccc2cc(Oc3ccc(C(F)(F)F)cn3)ccc2n1` [Example 454, N-[2-(isopropylamino)-2-oxoethyl]-N-methyl-6-{[5-(trifluoromethyl)pyridin-2-yl]oxy}quinoline-2-carboxamide], the half-inhibitory concentration (IC50) turned out to be 3140 nM.

As for `O=C(NCC(=O)N1CCCC1)c1ccc2cc(Oc3ccc(C(F)F)cn3)ccc2n1` [Example 456, 6-{[5-(difluoromethyl)pyridin-2-yl]oxy}-N-[2-oxo-2-(pyrrolidin-1-yl)ethyl]quinoline-2-carboxamide], the half-maximal inhibitory concentration (IC50) came to 886 nM.

In the case of `COCCNC(=O)CN(C)C(=O)c1ccc2cc(Oc3ccc(C(F)F)cn3)ccc2n1` [Example 457, 6-{[5-(difluoromethyl)pyridin-2-yl]oxy}-N-{2-[(2-methoxyethyl)amino]-2-oxoethyl}-N-methylquinoline-2-carboxamide], the IC50 is over 20000 nM.

In the case of `O=C(NCC(=O)N1CCOCC1)c1ccc2cc(Oc3ccc(C(F)F)cn3)ccc2n1` [Example 458, 6-{[5-(difluoromethyl)pyridin-2-yl]oxy}-N-[2-(morpholin-4-yl)-2-oxoethyl]quinoline-2-carboxamide], the IC50 is 1190 nM.

Take `O=C(NCCC(=O)N1CCOCC1)c1ccc2cc(Oc3ccc(C(F)F)cn3)ccc2n1` [Example 459, 6-{[5-(difluoromethyl)pyridin-2-yl]oxy}-N-[3-(morpholin-4-yl)-3-oxopropyl]quinoline-2-carboxamide]: the concentration for half-maximal inhibition (IC50) was 8690 nM.

Turning to `O=C(NCCC(=O)N1CCCC1)c1ccc2cc(Oc3ccc(C(F)F)cn3)ccc2n1` [Example 460, 6-{[5-(difluoromethyl)pyridin-2-yl]oxy}-N-[3-oxo-3-(pyrrolidin-1-yl)propyl]quinoline-2-carboxamide], the IC50 came to 2400 nM.

For the compound `CCN(CC)C(=O)CNC(=O)c1ccc2cc(Oc3ccc(C(F)F)cn3)ccc2n1` [Example 461, N-[2-(diethylamino)-2-oxoethyl]-6-{[5-(difluoromethyl)pyridin-2-yl]oxy}quinoline-2-carboxamide], the half-maximal inhibitory concentration (IC50) stood at 354 nM.

As to `O=C(NCCC(=O)N1CCCCC1)c1ccc2cc(Oc3ccc(C(F)F)cn3)ccc2n1` [Example 463, 6-{[5-(difluoromethyl)pyridin-2-yl]oxy}-N-[3-oxo-3-(piperidin-1-yl)propyl]quinoline-2-carboxamide], the IC50 is 1120 nM.

Regarding `CN1CCN(C(=O)c2ccc3cc(Oc4ccc(C(F)F)cn4)ccc3n2)CC1=O` [Example 464, 4-[(6-{[5-(difluoromethyl)pyridin-2-yl]oxy}quinolin-2-yl)carbonyl]-1-methylpiperazin-2-one], the concentration for half-maximal inhibition (IC50) was over 20000 nM.

With `CN(C)C(=O)[C@@H]1CCCN1C(=O)c1ccc2cc(Oc3ccc(C(F)F)cn3)ccc2n1` [Example 465, 1-[(6-{[5-(difluoromethyl)pyridin-2-yl]oxy}quinolin-2-yl)carbonyl]-N,N-dimethyl-L-prolinamide], the IC50 was over 20000 nM.

On to `CN(CC(=O)NC1CC1)C(=O)c1ccc2cc(Oc3ccc(C(F)F)cn3)ccc2n1` [Example 466, N-[2-(cyclopropylamino)-2-oxoethyl]-6-{[5-(difluoromethyl)pyridin-2-yl]oxy}-N-methylquinoline-2-carboxamide], for which the IC50 came to 9410 nM.

`CCN(CC)C(=O)CCNC(=O)c1ccc2cc(Oc3ccc(C(F)F)cn3)ccc2n1` [Example 467, N-[3-(diethylamino)-3-oxopropyl]-6-{[5-(difluoromethyl)pyridin-2-yl]oxy}quinoline-2-carboxamide]: the IC50 stood at 521 nM.

With `CC(C)NC(=O)CN(C)C(=O)c1ccc2cc(Oc3ccc(C(F)F)cn3)ccc2n1` [Example 468, 6-{[5-(difluoromethyl)pyridin-2-yl]oxy}-N-[2-(isopropylamino)-2-oxoethyl]-N-methylquinoline-2-carboxamide], the half-inhibitory concentration (IC50) turned out to be 13800 nM.

For `O=C(NCCN1CCNCC1=O)c1ccc2cc(Oc3ccc(C(F)(F)F)cn3)ccc2n1` [Example 469, N-[2-(2-oxopiperazin-1-yl)ethyl]-6-{[5-(trifluoromethyl)pyridin-2-yl]oxy}quinoline-2-carboxamide], the 50% inhibitory concentration (IC50) came to 1710 nM.

As to `O=C(NCC1CNC1)c1ccc2cc(Oc3ccc(C(F)(F)F)cn3)ccc2n1` [Example 470, N-(azetidin-3-ylmethyl)-6-{[5-(trifluoromethyl)pyridin-2-yl]oxy}quinoline-2-carboxamide], the concentration for half-maximal inhibition (IC50) amounted to 6600 nM.

On to `CC(C)(O)CNC(=O)c1ccc2cc(Oc3ccc(C(F)(F)F)nc3)ccc2n1` [Example 471, N-(2-hydroxy-2-methylpropyl)-6-{[6-(trifluoromethyl)pyridin-3-yl]oxy}quinoline-2-carboxamide], for which the IC50 came to 2400 nM.

Take `N#CCCCN1CCN(C(=O)c2ccc3cc(Oc4ccc(C(F)(F)F)cn4)ccc3n2)CC1` [Example 472, 4-{4-[(6-{[5-(trifluoromethyl)pyridin-2-yl]oxy}quinolin-2-yl)carbonyl]piperazin-1-yl}butanenitrile]: the IC50 amounted to 7760 nM.

In the case of `N#CCCN1CCN(C(=O)c2ccc3cc(Oc4ccc(C(F)(F)F)cn4)ccc3n2)CC1` [Example 473, 3-{4-[(6-{[5-(trifluoromethyl)pyridin-2-yl]oxy}quinolin-2-yl)carbonyl]piperazin-1-yl}propanenitrile], the IC50 was determined as 16200 nM.

For `N#CC1CCN(C(=O)c2ccc3cc(Oc4ccc(C(F)(F)F)cn4)ccc3n2)CC1` [Example 474, 1-[(6-{[5-(trifluoromethyl)pyridin-2-yl]oxy}quinolin-2-yl)carbonyl]piperidine-4-carbonitrile], the IC50 worked out at 9100 nM.

Staying with this assay, now noted: read-out: FRET-Membrane Potential Nav1.7 IC50.
For `CCN(CC)C(=O)CNC(=O)c1ccc2cc(Oc3ccc(C(F)(F)F)cn3)ccc2n1` [Example 446, N-[2-(diethylamino)-2-oxoethyl]-6-{[5-(trifluoromethyl)pyridin-2-yl]oxy}quinoline-2-carboxamide], the concentration for half-maximal inhibition (IC50) was determined as 166 nM.

Regarding `O=C(NCCC(=O)N1CCCCC1)c1ccc2cc(Oc3ccc(C(F)(F)F)cn3)ccc2n1` [Example 449, N-[3-oxo-3-(piperidin-1-yl)propyl]-6-{[5-(trifluoromethyl)pyridin-2-yl]oxy}quinoline-2-carboxamide], the 50% inhibitory concentration (IC50) is 789 nM.

For the compound `CNC(=O)[C@@H]1CCCN1C(=O)c1ccc2cc(Oc3ccc(C(F)F)cn3)ccc2n1` [Example 455, 1-[(6-{[5-(difluoromethyl)pyridin-2-yl]oxy}quinolin-2-yl)carbonyl]-N-methyl-L-prolinamide], the half-inhibitory concentration (IC50) was over 20000 nM.

For the compound `CN1CC(NC(=O)c2ccc3cc(Oc4ccc(C(F)F)cn4)ccc3n2)CC1=O` (stereo not shown) [Example 462, 6-{[5-(difluoromethyl)pyridin-2-yl]oxy}-N-(1-methyl-5-oxopyrrolidin-3-yl)quinoline-2-carboxamide], the IC50 is 947 nM.

As for `O=C(NC1COC1)c1ccc2cc(Oc3ccc(C(F)F)cn3)ccc2n1` [Example 475, 6-{[5-(difluoromethyl)pyridin-2-yl]oxy}-N-(oxetan-3-yl)quinoline-2-carboxamide], the IC50 is 1960 nM.

The values above are taken from US9452986B2, “6-heteroaryloxy- or 6-aryloxy-quinoline-2-carboxamides and method of use” (AbbVie Inc., priority 2014, dated 2016).
